The source of these data is patent US20100227859A1, “TRICYCLIC COMPOUNDS AS MATRIX METALLOPROTEINASE INHIBITORS” (priority 2007, published 2010).

Some results are limits rather than exact numbers.

purified human MMP-12 enzyme, sequence (P39900 106-470): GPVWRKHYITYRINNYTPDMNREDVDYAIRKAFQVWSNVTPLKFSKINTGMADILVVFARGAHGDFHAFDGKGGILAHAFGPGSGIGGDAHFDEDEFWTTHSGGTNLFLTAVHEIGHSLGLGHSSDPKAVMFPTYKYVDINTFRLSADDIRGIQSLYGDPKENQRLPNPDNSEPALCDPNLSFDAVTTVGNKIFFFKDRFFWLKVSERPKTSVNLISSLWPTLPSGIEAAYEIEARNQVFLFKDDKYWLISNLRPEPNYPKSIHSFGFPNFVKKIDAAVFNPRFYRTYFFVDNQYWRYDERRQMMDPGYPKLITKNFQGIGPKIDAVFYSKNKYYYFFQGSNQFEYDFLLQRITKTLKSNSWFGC

In the test the target is purified human MMP-12 enzyme (Homo sapiens, UniProt P39900). Briefly: MMP-12 FRET assay. The class given is biochemical. The settings on record: substrate 20 μM, room temperature. How it is done:
Compounds according to the present teachings were tested in an MMP-12 FRET assay as follows. To each well of black polystyrene 96-well plate was added assay buffer (50 mM HEPES (pH 7.4), 100 mM NaCl, 5 mM CaCl2 and 0.005% Brij-35 (Polyoxyethyleneglycol dodecyl ether, Pierce cat#20150), purified human MMP-12 enzyme, and varied concentrations of test compounds (prepared by serial dilution of a stock solution in 100% DMSO). The plates were incubated at room temperature for 30 minutes. The enzymatic reactions were initiated by addition of a substrate, MCA-Pro-Leu-Gly-Leu-Dpa(DNP)-Ala-Arg, containing a fluorescent group (7-methoxycoumarin, MCA) and a 2,4-dinitrophenyl group (DNP), to a final concentration of 20 μM. The final DMSO concentration in the assay was 10%. The reaction was monitored for 30 minutes at room temperature and the initial rate of the cleavage reaction was determined using a fluorescence plate reader (λex: 325 nm, λem: 395 nm). Plots of the inhibitor concentration vs. the initial cleavage rate were fit to the following equation: y=Vmax*(1−(x^n/(K^n+x^n))), whereby x=inhibitor concentration, y=initial rate, Vmax=initial rate in the absence of inhibitor, n=slope factor, and K=IC50 for the inhibition curve.
On to `CC(C)[C@H](NS(=O)(=O)c1ccc2c(c1)oc1ccc(-c3ccoc3Cl)cc12)C(=O)O` [Compound 94, (S)-2-(8-(2-chlorofuran-3-yl)dibenzo[b,d]furan-3-sulfonamido)-3-methylbutanoic acid], for which the IC50 (usually the concentration that gives 50% inhibition) is < 1.5 nM.
Regarding `Cc1nc(CC(C)C)sc1-c1ccc2c(c1)oc1ccc(S(=O)(=O)N[C@H](C(=O)O)C(C)C)cc12` [Compound 247, (S)-2-(7-(2-isobutyl-4-methylthiazol-5-yl)dibenzo[b,d]furan-2-sulfonamido)-3-methylbutanoic acid], inhibition was half-maximal at 131 nM (IC50).
Turning to `CC(C)[C@H](NS(=O)(=O)c1ccc2c(c1)oc1ccc(C(=N)NCc3ccccc3)cc12)C(=O)O` [Compound 88, (S)-2-(8-(N-benzylcarbamimidoyl)dibenzo[b,d]furan-3-sulfonamido)-3-methylbutanoic acid], the midpoint of inhibition, the IC50, lay at 47 nM. Against the preceding compound, the IC50 is about 2.8-fold lower.
Take `CC(C)[C@@H](NS(=O)(=O)c1ccc2oc3cc(-c4ccc(Cl)o4)ccc3c2c1)C(=O)O` [Compound 290, (R)-2-(7-(5-chlorofuran-2-yl)dibenzo[b,d]furan-2-sulfonamido)-3-methylbutanoic acid]: the IC50 turned out to be 4.4 nM.
For the compound `CC(C)[C@@H](NS(=O)(=O)c1ccc2oc3cc(-c4ccc(Cl)nc4)ccc3c2c1)C(=O)O` [Compound 101, (R)-2-(7-(6-chloropyridin-3-yl)dibenzo[b,d]furan-2-sulfonamido)-3-methylbutanoic acid], the half-inhibitory concentration (IC50) was determined as 5.1 nM. This IC50 and that of the compound before are within 1.5-fold of each other.
For the compound `CC(C)[C@@H](NS(=O)(=O)c1ccc2sc3cc(-c4ccc(Cl)o4)ccc3c2c1)C(=O)O` [Compound 288, (R)-2-(7-(5-chlorofuran-2-yl)dibenzo[b,d]thiophene-2-sulfonamido)-3-methylbutanoic acid], inhibition was half-maximal at 110 nM (IC50).
Regarding `CC(C)[C@H](NS(=O)(=O)c1ccc2c(c1)oc1ccc(-c3nc(-c4ccc(C(F)(F)F)cc4)cs3)cc12)C(=O)O` [Compound 283, (S)-3-methyl-2-(8-(4-(4-(trifluoromethyl)phenyl)thiazol-2-yl)dibenzo[b,d]furan-3-sulfonamido)butanoic acid], the IC50 is < 1.5 nM.
Regarding `Cc1nc(C)c(-c2ccc3c(c2)oc2ccc(S(=O)(=O)N[C@@H](C(=O)O)C(C)C)cc23)s1` [Compound 169, (R)-2-(7-(2,4-dimethylthiazol-5-yl)dibenzo[b,d]furan-2-sulfonamido)-3-methylbutanoic acid], the midpoint of inhibition, the IC50, lay at 11 nM.
With `CC(C)[C@@H](NS(=O)(=O)c1ccc2oc3cc(-c4cncnc4)ccc3c2c1)C(=O)O` [Compound 167, (R)-3-methyl-2-(7-(pyrimidin-5-yl)dibenzo[b,d]furan-2-sulfonamido)butanoic acid], the IC50 was < 1.5 nM.
As to `COc1ccc2sc(-c3ccc4oc5cc(S(=O)(=O)N[C@H](C(=O)O)C(C)C)ccc5c4c3)nc2c1` [Compound 225, (S)-2-(8-(5-methoxybenzo[d]thiazol-2-yl)dibenzo[b,d]furan-3-sulfonamido)-3-methylbutanoic acid], the IC50 is < 1.5 nM.
As for `CC(C)[C@H](NS(=O)(=O)c1ccc2oc3cc(-c4noc(C(C)(C)C)n4)ccc3c2c1)C(=O)O` [Compound 276, (S)-2-(7-(5-tert-butyl-1,2,4-oxadiazol-3-yl)dibenzo[b,d]furan-2-sulfonamido)-3-methylbutanoic acid], the figure is 34 nM.
With `CC(C)[C@H](NS(=O)(=O)c1ccc2c(c1)oc1cc(-c3sc(Cl)cc3Cl)ccc12)C(=O)O` [Compound 85, (S)-2-(7-(3,5-dichlorothiophen-2-yl)dibenzo[b,d]furan-3-sulfonamido)-3-methylbutanoic acid], the half-maximal inhibitory concentration (IC50) was < 1.5 nM.
For `Cc1c(-c2ccc3oc4cc(S(=O)(=O)N[C@H](C(=O)O)C(C)C)ccc4c3c2)cnn1-c1ccccc1` [Compound 162, (S)-3-methyl-2-(8-(5-methyl-1-phenyl-1H-pyrazol-4-yl)dibenzo[b,d]furan-3-sulfonamido)butanoic acid] the value was < 1.5 nM.
In the case of `CCc1sc(-c2ccc3c(c2)oc2cc(S(=O)(=O)N[C@H](C(=O)O)C(C)C)ccc23)cc1Br` [Compound 165, (S)-2-(7-(4-bromo-5-ethylthiophen-2-yl)dibenzo[b,d]furan-3-sulfonamido)-3-methylbutanoic acid], the concentration for half-maximal inhibition (IC50) is 1.5 nM.
Compound `CC(C)[C@@H](NS(=O)(=O)c1ccc2oc3cc(-c4noc(C(C)(C)C)n4)ccc3c2c1)C(=O)O` [Compound 133, (R)-2-(7-(5-tert-butyl-1,2,4-oxadiazol-3-yl)dibenzo[b,d]furan-2-sulfonamido)-3-methylbutanoic acid] returned an IC50 of 8 nM.
As to `CC(C)[C@H](NS(=O)(=O)c1ccc2c(c1)oc1ccc(-c3nc4c(F)cccc4s3)cc12)C(=O)O` [Compound 218, (S)-2-(8-(4-fluorobenzo[d]thiazol-2-yl)dibenzo[b,d]furan-3-sulfonamido)-3-methylbutanoic acid], the IC50 is < 1.5 nM.
For the compound `CC(C)[C@H](NS(=O)(=O)c1ccc2c(c1)oc1ccc(-c3nc(C(F)(F)F)cs3)cc12)C(=O)O` [Compound 126, (S)-3-methyl-2-(8-(4-(trifluoromethyl)thiazol-2-yl)dibenzo[b,d]furan-3-sulfonamido)butanoic acid], the IC50 was < 1.5 nM.
As for `Cc1nc(-c2ccc(C(F)(F)F)cc2)sc1-c1ccc2c(c1)oc1ccc(S(=O)(=O)N[C@@H](C(=O)O)C(C)C)cc12` [Compound 177, (R)-3-methyl-2-(7-(4-methyl-2-(4-(trifluoromethyl)phenyl)thiazol-5-yl)dibenzo[b,d]furan-2-sulfonamido)butanoic acid], the figure is 740 nM.
For `O=C(O)CNS(=O)(=O)c1ccc2c(c1)oc1ccc(-c3nccs3)cc12` [Compound 251, 2-(8-(thiazol-2-yl)dibenzo[b,d]furan-3-sulfonamido)acetic acid] the value was 17 nM; for `CC(C)[C@H](NS(=O)(=O)c1ccc2c(c1)oc1cc(-c3nc4ccccc4o3)ccc12)C(=O)O` [Compound 227, (S)-2-(7-(benzo[d]oxazol-2-yl)dibenzo[b,d]furan-3-sulfonamido)-3-methylbutanoic acid], 6.1 nM; for `CC(C)[C@H](NS(=O)(=O)c1ccc2c(c1)oc1ccc(-c3nc4ccccc4o3)cc12)C(=O)O` [Compound 194, (S)-2-(8-(benzo[d]oxazol-2-yl)dibenzo[b,d]furan-3-sulfonamido)-3-methylbutanoic acid], 4.6 nM.
`CC(C)[C@@H](NS(=O)(=O)c1ccc2oc3cc(-c4cnn(Cc5ccccc5)c4)ccc3c2c1)C(=O)O` [Compound 175, (R)-2-(7-(1-benzyl-1H-pyrazol-4-yl)dibenzo[b,d]furan-2-sulfonamido)-3-methylbutanoic acid] came in with an IC50 of 12 nM.
Turning to `CC(C)[C@@H](NS(=O)(=O)c1ccc2oc3cc(-c4nc5ccc(C(F)(F)F)cc5s4)ccc3c2c1)C(=O)O` [Compound 302, (R)-3-methyl-2-(7-(6-(trifluoromethyl)benzo[d]thiazol-2-yl)dibenzo[b,d]furan-2-sulfonamido)butanoic acid], the IC50 turned out to be 28 nM.
For `CCCn1cc(-c2ccc3sc4cc(S(=O)(=O)N[C@H](C(=O)O)C(C)C)ccc4c3c2)cn1` [Compound 42, (S)-3-methyl-2-(8-(1-propyl-1H-pyrazol-4-yl)dibenzo[b,d]thiophene-3-sulfonamido)butanoic acid], the IC50 is 7.8 nM.
The compound `CC(C)(C)c1nc(-c2ccc3oc4cc(S(=O)(=O)N[C@@H](C(=O)O)c5ccccc5)ccc4c3c2)no1` [Compound 255, (R)-2-(8-(5-tert-butyl-1,2,4-oxadiazol-3-yl)dibenzo[b,d]furan-3-sulfonamido)-2-phenylacetic acid] yielded an IC50 of 21 nM.
Compound `CC(C)[C@H](NS(=O)(=O)c1ccc2c(c1)oc1ccc(-c3ccco3)cc12)C(=O)O` [Compound 37, (S)-2-(8-(furan-2-yl)dibenzo[b,d]furan-3-sulfonamido)-3-methylbutanoic acid] registered a half-maximal inhibitory concentration (IC50) of 1.9 nM. Against the preceding compound, the IC50 is about 11-fold lower.
With `COc1ccc(-c2ccc3c(c2)oc2ccc(S(=O)(=O)N[C@@H](C(=O)O)C(C)C)cc23)cn1` [Compound 102, (R)-2-(7-(6-methoxypyridin-3-yl)dibenzo[b,d]furan-2-sulfonamido)-3-methylbutanoic acid], the IC50 was < 1.5 nM.
For `CC(C)[C@H](NS(=O)(=O)c1ccc2c(c1)oc1cc(-c3cccs3)ccc12)C(=O)O` [Compound 81, (S)-3-methyl-2-(7-(thiophen-2-yl)dibenzo[b,d]furan-3-sulfonamido)butanoic acid] the value was < 1.5 nM.
For `CC(C)[C@H](NS(=O)(=O)c1ccc2c(c1)oc1ccc(-c3ccc(C(C)(C)C)o3)cc12)C(=O)O` [Compound 198, (S)-2-(8-(5-tert-butylfuran-2-yl)dibenzo[b,d]furan-3-sulfonamido)-3-methylbutanoic acid] the value was 5.6 nM; for `CC(C)[C@H](NS(=O)(=O)c1ccc2c(c1)oc1ccc(-c3nc(-c4ccc(F)cc4)cs3)cc12)C(=O)O` [Compound 284, (S)-2-(8-(4-(4-fluorophenyl)thiazol-2-yl)dibenzo[b,d]furan-3-sulfonamido)-3-methylbutanoic acid], 18 nM; for `CC(C)[C@@H](NS(=O)(=O)c1ccc2oc3cc(-c4noc(CC5CCCC5)n4)ccc3c2c1)C(=O)O` [Compound 191, (R)-2-(7-(5-(cyclopentylmethyl)-1,2,4-oxadiazol-3-yl)dibenzo[b,d]furan-2-sulfonamido)-3-methylbutanoic acid], 3.3 nM.
